In PubChem BioAssay AID328 (DTP/NCI, 2004):
Values joined by “and” are separate entries in the source; they are usually repeats but may differ in a detail not shown here. Equal values may be shown once. Toxic doses and inconclusive results are not listed.

Tested on: BDF1 mice, P388 leukemia ip, median survival T/C
Test: NCI In Vivo Anticancer Drug Screen. Data for tumor model P388 Leukemia (intraperitoneal) in B6D2F1 (BDF1) mice
Details: endpoint: median survival time, higher = longer survival
Summary of the method: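 Survival ratio, drug arm over vehicle arm, in mice with a transplanted tumour.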

[1] = dose: 100.0 mg/kg/injection, schedule: Q04DX003 (ip), vehicle: saline with Tween-80
[2] = dose: 6.25 mg/kg/injection, schedule: Q01DX009 (ip), vehicle: saline
[3] = dose: 12.5 mg/kg/injection, schedule: Q01DX009 (ip), vehicle: saline
[4] = dose: 25.0 mg/kg/injection, schedule: Q01DX009 (ip), vehicle: saline
[5] = dose: 200.0 mg/kg/injection, schedule: Q04DX003 (ip), vehicle: saline with Tween-80
[6] = dose: 400.0 mg/kg/injection, schedule: Q04DX003 (ip), vehicle: saline with Tween-80
[7] = dose: 100.0 mg/kg/injection, schedule: Q01DX009 (ip), vehicle: saline with Tween-80
[8] = dose: 100.0 mg/kg/injection, schedule: Q04DX003 (ip), vehicle: Klucel (hydroxypropylcellulose) (HPC)
[9] = dose: 200.0 mg/kg/injection, schedule: Q04DX003 (ip), vehicle: Klucel (hydroxypropylcellulose) (HPC)
[10] = dose: 400.0 mg/kg/injection, schedule: Q04DX003 (ip), vehicle: Klucel (hydroxypropylcellulose) (HPC)
[11] = dose: 100.0 mg/kg/injection, schedule: Q01DX009 (ip), vehicle: Klucel (hydroxypropylcellulose) (HPC)
[12] = dose: 200.0 mg/kg/injection, schedule: Q01DX009 (ip), vehicle: Klucel (hydroxypropylcellulose) (HPC)
[13] = dose: 25.0 mg/kg/injection, schedule: Q01DX009 (ip), vehicle: Klucel (hydroxypropylcellulose) (HPC)
[14] = dose: 50.0 mg/kg/injection, schedule: Q01DX009 (ip), vehicle: Klucel (hydroxypropylcellulose) (HPC)

## O=C(NNC1CCN(Cc2ccccc2)CC1)c1ccccc1
dose: 1.1 mg/kg/injection, schedule: Q04DX003 (ip), vehicle: saline with Tween-80
  T/C: 100 % of control
dose: 1.65 mg/kg/injection, schedule: Q04DX003 (ip), vehicle: saline with Tween-80
  T/C: 100 % of control
dose: 2.5 mg/kg/injection, schedule: Q04DX003 (ip), vehicle: saline with Tween-80
  T/C: 100 % of control
dose: 3.75 mg/kg/injection, schedule: Q04DX003 (ip), vehicle: saline with Tween-80
  T/C: 100 % of control
dose: 5.0 mg/kg/injection, schedule: Q04DX003 (ip), vehicle: saline with Tween-80
  T/C: 104 % of control
dose: 10.0 mg/kg/injection, schedule: Q04DX003 (ip), vehicle: saline with Tween-80
  T/C: 104 % of control

## Clc1ccc(OCc2sc3ccc(Cl)cc3c2CN2CCCCC2)cc1
dose: 25.0 mg/kg/injection, schedule: Q04DX003 (ip), vehicle: saline with Tween-80
  T/C: 100 % of control
dose: 50.0 mg/kg/injection, schedule: Q04DX003 (ip), vehicle: saline with Tween-80
  T/C: 90 % of control
[1]
  T/C: 90 % of control

## OC(CC(O)(C(F)(F)F)C(F)(F)F)c1cccc(C(F)(F)F)c1 (stereo unspecified)
dose: 100.0 mg/kg/injection, schedule: Q04DX003 (ip), vehicle: other
  T/C: 100 % of control
dose: 200.0 mg/kg/injection, schedule: Q04DX003 (ip), vehicle: other
  T/C: 104 % of control
dose: 400.0 mg/kg/injection, schedule: Q04DX003 (ip), vehicle: other
  T/C: 95 % of control

## O=S(=O)([O-])[O-].OCCNCCNCC[OH2+].OCCNCCNCC[OH2+].[Cu+2]
[2]
  T/C: 94 % of control
[3]
  T/C: 100 % of control
[4]
  T/C: 94 % of control

## C1=C\CCC2SC2CC/1 (stereo unspecified)
dose: 100.0 mg/kg/injection, schedule: Q04DX002 (ip), vehicle: saline
  T/C: 100 % of control
dose: 200.0 mg/kg/injection, schedule: Q04DX002 (ip), vehicle: saline
  T/C: 97 % of control
dose: 400.0 mg/kg/injection, schedule: Q04DX002 (ip), vehicle: saline
  T/C: 100 % of control

## CN(C)NP(=O)(NN(C)C)N(C)C
dose: 50.0 mg/kg/injection, schedule: Q04DX003 (ip), vehicle: saline
  T/C: 100 % of control
dose: 100.0 mg/kg/injection, schedule: Q04DX003 (ip), vehicle: saline
  T/C: 113 % of control
dose: 200.0 mg/kg/injection, schedule: Q04DX003 (ip), vehicle: saline
  T/C: 95 % of control

## CCN1/C(=C/C=C/c2oc3ccccc3[n+]2CC)Oc2ccccc21
dose: 0.13 mg/kg/injection, schedule: Q01DX010 (ip), vehicle: saline
  T/C: 118 % of control
dose: 0.15 mg/kg/injection, schedule: Q01DX009 (ip), vehicle: saline
  T/C: 108 % of control
dose: 0.25 mg/kg/injection, schedule: Q01DX010 (ip), vehicle: saline
  T/C: 118 % of control
dose: 0.6 mg/kg/injection, schedule: Q01DX009 (ip), vehicle: Klucel (hydroxypropylcellulose) (HPC)
  T/C: 165 % of control
dose: 37.5 micrograms/kg/injection, schedule: Q01DX009 (ip), vehicle: Klucel (hydroxypropylcellulose) (HPC)
  T/C: 108 % of control
dose: 75.0 micrograms/kg/injection, schedule: Q01DX009 (ip), vehicle: Klucel (hydroxypropylcellulose) (HPC)
  T/C: 104 % of control
dose: 150.0 micrograms/kg/injection, schedule: Q01DX009 (ip), vehicle: Klucel (hydroxypropylcellulose) (HPC)
  T/C: 116 % of control

## CCN(CC)C(=O)C1=NNc2ccc(Cl)cc2C(=O)N1C
[1]
  T/C: 100 % of control
[5]
  T/C: 109 % of control
[6]
  T/C: 97 % of control

## O=C(CS)CS
dose: 6.25 mg/kg/injection, schedule: Q01DX009 (ip), vehicle: water
  T/C: 102 % of control
dose: 12.5 mg/kg/injection, schedule: Q01DX009 (ip), vehicle: water
  T/C: 102 % of control
dose: 25.0 mg/kg/injection, schedule: Q01DX009 (ip), vehicle: water
  T/C: 93 % of control
dose: 50.0 mg/kg/injection, schedule: Q01DX009 (ip), vehicle: water
  T/C: 104 % of control

## S=C(Nc1cc2c3c(c1)CCCN3CCC2)Nc1cc2c3c(c1)CCCN3CCC2
dose: 100.0 mg/kg/injection, schedule: Q01DX001 (ip), vehicle: saline with Tween-80
  T/C: 109 % of control
dose: 200.0 mg/kg/injection, schedule: Q01DX001 (ip), vehicle: saline with Tween-80
  T/C: 100 % of control
dose: 400.0 mg/kg/injection, schedule: Q01DX001 (ip), vehicle: saline with Tween-80
  T/C: 95 % of control

## c1ccc(CSC2=NCCS2)cc1
dose: 100.0 mg/kg/injection, schedule: Q01DX009 (ip), vehicle: saline
  T/C: 113 % of control
dose: 200.0 mg/kg/injection, schedule: Q01DX009 (ip), vehicle: saline
  T/C: 104 % of control
dose: 400.0 mg/kg/injection, schedule: Q01DX009 (ip), vehicle: saline
  T/C: 113 % of control

## CCCCOCN(CCCc1ccccc1)COCCCC
[7]
  T/C: 121 % of control

## CCC(C)c1ccccc1OC(=O)Nc1ccc(OC)cc1 (stereo unspecified)
dose: 50.0 mg/kg/injection, schedule: Q04DX003 (ip), vehicle: Klucel (hydroxypropylcellulose) (HPC)
  T/C: 95 % of control
[8]
  T/C: 100 % of control
[9]
  T/C: 100 % of control

## S=c1nc[nH]c2ccccc12
[8]
  T/C: 109 % of control
[9]
  T/C: 122 % of control
[10]
  T/C: 109 % of control

## CC(=O)N1C=Cn2c(cnc2C)C1O (stereo unspecified)
dose: 100.0 mg/kg/injection, schedule: Q04DX003 (ip), vehicle: water
  T/C: 96 % of control
dose: 200.0 mg/kg/injection, schedule: Q04DX003 (ip), vehicle: water
  T/C: 91 % of control
dose: 400.0 mg/kg/injection, schedule: Q04DX003 (ip), vehicle: water
  T/C: 99 % of control

## CC(C)(C)NC(C1=CC(C)(C)c2ccccc2C1=O)c1ccccc1 (stereo unspecified)
[11]
  T/C: 105 % of control
[8]
  T/C: 100 % of control
[12]
  T/C: 110 % of control
[9]
  T/C: 95 % of control
[10]
  T/C: 90 % of control

## COc1ccc(OC)c2nc3c(=O)[nH]c(=O)[nH]c3nc12
dose: 55.0 mg/kg/injection, schedule: Q01DX010 (ip), vehicle: water
  T/C: 100 % of control
dose: 80.0 mg/kg/injection, schedule: Q01DX010 (ip), vehicle: water
  T/C: 109 % of control
dose: 120.0 mg/kg/injection, schedule: Q01DX010 (ip), vehicle: water
  T/C: 109 % of control
dose: 180.0 mg/kg/injection, schedule: Q01DX010 (ip), vehicle: water
  T/C: 118 % of control

## O=C(CBr)Nc1nccs1
dose: 1.56 mg/kg/injection, schedule: Q01DX009 (ip), vehicle: saline
  T/C: 100 % of control
dose: 3.12 mg/kg/injection, schedule: Q04DX003 (ip), vehicle: saline
  T/C: 95 % of control
[2]
  T/C: 97 % of control
dose: 6.25 mg/kg/injection, schedule: Q04DX003 (ip), vehicle: saline
  T/C: 94 % of control and 102 % of control
[3]
  T/C: 90 % of control
dose: 12.5 mg/kg/injection, schedule: Q04DX003 (ip), vehicle: saline
  T/C: 91 % of control and 97 % of control
[4]
  T/C: 97 % of control
dose: 25.0 mg/kg/injection, schedule: Q04DX003 (ip), vehicle: saline
  T/C: 91 % of control and 97 % of control and 100 % of control
dose: 50.0 mg/kg/injection, schedule: Q01DX009 (ip), vehicle: saline
  T/C: 104 % of control

## O=c1[nH]c(-c2ccccc2)c(-c2ccccc2)[nH]1
dose: 12.5 mg/kg/injection, schedule: Q01DX009 (ip), vehicle: Klucel (hydroxypropylcellulose) (HPC)
  T/C: 95 % of control
[13]
  T/C: 86 % of control
[14]
  T/C: 86 % of control

## CN(Cc1ccccc1)/N=N/c1nc[nH]c1C(N)=O
[13]
  T/C: 95 % of control
[14]
  T/C: 110 % of control
[11]
  T/C: 110 % of control
[12]
  T/C: 100 % of control

## CC(C)C1NC(=O)C2CCCN2C1=O (stereo unspecified)
[7]
  T/C: 100 % of control
[1]
  T/C: 109 % of control
dose: 200.0 mg/kg/injection, schedule: Q01DX009 (ip), vehicle: saline with Tween-80
  T/C: 100 % of control
[5]
  T/C: 113 % of control
dose: 400.0 mg/kg/injection, schedule: Q01DX009 (ip), vehicle: saline with Tween-80
  T/C: 123 % of control
[6]
  T/C: 118 % of control

## Cc1ccc2c(c1)C(=O)CCS2
[8]
  T/C: 100 % of control
[9]
  T/C: 100 % of control
[10]
  T/C: 100 % of control

## Cc1[nH]c(N)nc(=S)c1CCC(=O)O
[8]
  T/C: 100 % of control
[9]
  T/C: 104 % of control
[10]
  T/C: 95 % of control

## CC(=O)OC/C=C(C)/C=C/C=C(C)/C=C/C1=C(C)CCCC1(C)C
dose: 100.0 mg/kg/injection, schedule: Q01DX010 (ip), vehicle: acetone
  T/C: 107 % of control
dose: 200.0 mg/kg/injection, schedule: Q01DX010 (ip), vehicle: acetone
  T/C: 89 % of control
dose: 800.0 mg/kg/injection, schedule: Q01DX010 (ip), vehicle: acetone
  T/C: 121 % of control
